Source: patent US20110039847A1, “AMIDE DERIVATIVES AS SIRTUIN MODULATORS” (Sirtris Pharmaceuticals, Inc, priority 2007, published 2011)

Target: T1, SIRT1 (Homo sapiens, UniProt Q96EB6)
T1 sequence (Q96EB6 1-747): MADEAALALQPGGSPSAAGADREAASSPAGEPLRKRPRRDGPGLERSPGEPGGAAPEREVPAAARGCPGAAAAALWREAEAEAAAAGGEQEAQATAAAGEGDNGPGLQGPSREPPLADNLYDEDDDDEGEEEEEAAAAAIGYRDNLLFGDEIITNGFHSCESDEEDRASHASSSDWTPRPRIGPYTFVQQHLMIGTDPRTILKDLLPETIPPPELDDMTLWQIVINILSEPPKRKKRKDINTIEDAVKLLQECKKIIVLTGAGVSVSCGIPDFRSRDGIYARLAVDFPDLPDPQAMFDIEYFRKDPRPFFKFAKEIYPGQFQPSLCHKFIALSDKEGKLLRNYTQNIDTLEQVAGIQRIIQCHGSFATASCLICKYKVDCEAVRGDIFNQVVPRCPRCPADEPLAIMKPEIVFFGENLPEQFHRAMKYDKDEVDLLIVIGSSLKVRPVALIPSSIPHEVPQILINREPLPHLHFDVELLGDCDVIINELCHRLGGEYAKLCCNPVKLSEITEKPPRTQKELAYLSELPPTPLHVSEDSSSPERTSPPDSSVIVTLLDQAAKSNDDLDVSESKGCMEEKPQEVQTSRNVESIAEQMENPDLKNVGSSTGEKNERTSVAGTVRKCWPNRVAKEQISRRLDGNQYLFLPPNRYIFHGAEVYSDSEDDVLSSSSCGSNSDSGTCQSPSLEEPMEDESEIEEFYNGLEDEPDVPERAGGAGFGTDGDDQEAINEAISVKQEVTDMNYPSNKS
Assay: Mass spectrometry based SIRT1 deacetylation (activation) assay
Type: biochemical
Settings: 0.5 μM peptide substrate, 120 μM βNAD+, 10 nM SIRT1, 25 min at 25° C.; for Emax: 25 min, read-out: % Fold Act. (percent maximum fold activation)
Description: A mass spectrometry based assay was used to identify modulators of SIRT1 activity. The mass spectrometry based assay utilizes a peptide having 20 amino acid residues as follows: Ac-EE-K(biotin)-GQSTSSHSK(Ac)NleSTEG-K(5TMR)-EE-NH2 (SEQ ID NO: 1) wherein K(Ac) is an acetylated lysine residue and Nle is a norleucine. The peptide is labeled with the fluorophore 5TMR (excitation 540 nm/emission 580 nm) at the C-terminus. The sequence of the peptide substrate is based on p53 with several modifications. In addition, the methionine residue naturally present in the sequence was replaced with the norleucine because the methionine may be susceptible to oxidation during synthesis and purification.
The mass spectrometry assay is conducted as follows: 0.5 μM peptide substrate and 120 μM βNAD^+ is incubated with 10 nM SIRT1 for 25 minutes at 25° C. in a reaction buffer (50 mM Tris-acetate pH 8, 137 mM NaCl, 2.7 mM KCl, 1 mM MgCl2, 5 mM DTT, 0.05% BSA). Test compounds may be added to the reaction as described above. […] After the 25 minute incubation with SIRT1, 10 μL of 10% formic acid is added to stop the reaction. Reactions are sealed and frozen for later mass spec analysis. Determination of the mass of the substrate peptide allows for precise determination of the degree of acetylation (i.e. starting material) as compared to deacetylated peptide (product).
A control for inhibition of sirtuin activity is conducted by adding 1 μL of 500 mM nicotinamide as a negative control at the start of the reaction (e.g., permits determination of maximum sirtuin inhibition). A control for activation of sirtuin activity is conducted using 10 nM of sirtuin protein, with 1 μL of DMSO in place of compound, to determine the amount of deacetylation of the substrate at a given timepoint within the linear range of the assay. This timepoint is the same as that used for test compounds and, within the linear range, the endpoint represents a change in velocity.
For the above assay, SIRT1 protein was expressed and purified as follows. […] The protein was expressed by induction with 1 mM IPTG as an N-terminal His-tag fusion protein at 18° C. overnight and harvested at 30,000×g. Cells were lysed with lysozyme in lysis buffer (50 mM Tris-HCl, 2 mM Tris[2-carboxyethyl]phosphine (TCEP), 10 μM ZnCl2, 200 mM NaCl) and further treated with sonication for 10 min for complete lysis. The protein was purified over a Ni-NTA column (Amersham) and fractions containing pure protein were pooled, concentrated and run over a sizing column (Sephadex S200 26/60 global). The peak containing soluble protein was collected and run on an Ion-exchange column (MonoQ). Gradient elution (200 mM-500 mM NaCl) yielded pure protein. This protein was concentrated and dialyzed against dialysis buffer (20 mM Tris-HCl, 2 mM TCEP) overnight. The protein was aliquoted and frozen at −80° C. until further use.

Which results are given for `CCN(CCN(C)C)c1cc(C(=O)Nc2ccccc2-c2nnc(-c3ccncc3)s2)nc(-c2ccccc2)n1` [Compound 82]?
EC1.5: A (EC1.5≦1 uM); Emax: ≥ 300%

Which EC1.5 does the source give for `CCc1nnc(-c2ccccc2NC(=O)c2cc(NCCN(C)C)nc(-c3ccccc3)n2)s1` [Compound 53] here?
Its EC1.5 is “B (EC1.5>1 and ≦10 uM)”.

What about the Emax of the same molecule?
Its Emax is 150 to 300%.

With `CCN(CCN(C)C)c1cc(C(=O)Nc2ccccc2-c2nnc(-c3cccnc3)s2)nc(-c2ccccc2)n1` [Compound 81] as the molecule, how does the EC1.5 read?
Its EC1.5 is “A (EC1.5≦1 uM)”.

What about the Emax of the same molecule?
Its Emax is ≥ 300%.

Which results are given for `CCOC(=O)c1nnc(-c2ccccc2NC(=O)c2cc(N(C)CCN(C)C)nc(-c3ccccc3)n2)s1` [Compound 57]?
EC1.5: C (EC1.5>10 uM); Emax: < 150%

With `CN(C)CCNc1cc(C(=O)Nc2ccccc2-c2ncc(-c3ccccc3)s2)nc(-c2ccccc2)n1` [Compound 13] as the molecule, how does the EC1.5 read?
The EC1.5 was “A (EC1.5≦1 uM)”.

What about the Emax of the same molecule?
The Emax was 150 to 300%.

With `CSCCNC(=O)c1ccccc1NC(=O)c1cc(NCCN(C)C)nc(-c2ccccc2)n1` [Compound 148, 6-(2-(dimethylamino)ethylamino)-N-(2-(2-(methylthio)ethylcarbamoyl)phenyl)-2-phenylpyrimidine-4-carboxamide] as the molecule, how does the EC1.5 read?
Its EC1.5 is “B (EC1.5>1 and ≦10 uM)”.

What about the Emax of the same molecule?
Its Emax is ≥ 300%.

Which EC1.5 does the source give for `CN(C)CCNc1cc(C(=O)Nc2ccccc2C(=O)Nc2cccc(C(N)=O)c2)nc(-c2ccccc2)n1` [Compound 147, N-(2-(3-carbamoylphenylcarbamoyl)phenyl)-6-(2-(dimethylamino)ethylamino)-2-phenylpyrimidine-4-carboxamide] here?
Its EC1.5 is “A (EC1.5≦1 uM)”.

What about the Emax of the same molecule?
Its Emax is ≥ 300%.

For `CCN(CCN(C)C)c1cc(C(=O)Nc2ccccc2-c2ncc(C(C)(C)C)o2)nc(-c2ccccc2)n1` [Compound 65], which EC1.5 is on record?
Its EC1.5 is “B (EC1.5>1 and ≦10 uM)”.

What about the Emax of the same molecule?
Its Emax is 150 to 300%.

With `CN(C)CCNc1cc(C(=O)Nc2ccccc2C(=O)N(C)c2ccccc2)nc(-c2ccccc2)n1` [Compound 151, 6-(2-(dimethylamino)ethylamino)-N-(2-(methyl(phenyl)carbamoyl)phenyl)-2-phenylpyrimidine-4-carboxamide] as the molecule, how does the EC1.5 read?
Its EC1.5 is “C (EC1.5>10 uM)”.

What about the Emax of the same molecule?
Its Emax is 150 to 300%.

Which EC1.5 does the source give for `CN(C)CCNc1cc(C(=O)Nc2ccccc2C(=O)NCCS(C)(=O)=O)nc(-c2ccccc2)n1` [Compound 149, 6-(2-(dimethylamino)ethylamino)-N-(2-(2-(methylsulfonyl)ethylcarbamoyl)phenyl)-2-phenylpyrimidine-4-carboxamide] here?
The EC1.5 was “B (EC1.5>1 and ≦10 uM)”.

What about the Emax of the same molecule?
The Emax was 150 to 300%.

What does the source list for `CCN(CC)C(=O)c1ccccc1NC(=O)c1cc(NCCN(C)C)nc(-c2ccccc2)n1` [Compound 124, N-(2-(diethylcarbamoyl)phenyl)-6-(2-(dimethylamino)ethylamino)-2-phenylpyrimidine-4-carboxamide]?
EC1.5: B (EC1.5>1 and ≦10 uM); Emax: 150 to 300%

What does the source list for `CNCCN(C)c1cc(C(=O)Nc2ccccc2-c2nnc(-c3ccccc3)s2)nc(-c2ccccc2)c1` [Compound 44]?
EC1.5: A (EC1.5≦1 uM); Emax: ≥ 300%

Which results are given for `CCN(CCN(C)C)c1cc(C(=O)Nc2ccccc2-c2ncc(C(C)(C)C)o2)nc(-c2ccccc2)c1` [Compound 43]?
EC1.5: A (EC1.5≦1 uM); Emax: ≥ 300%

What does the source list for `CCN(CCN(C)C)c1cc(C(=O)Nc2ccccc2C(=O)NC2CCNCC2)nc(-c2ccccc2)n1` [Compound 167, 6-((2-(dimethylamino)ethyl)(ethyl)amino)-2-phenyl-N-(2-(piperidin-4-ylcarbamoyl)phenyl)pyrimidine-4-carboxamide]?
EC1.5: A (EC1.5≦1 uM); Emax: ≥ 300%

`CN1CCN(c2cc(C(=O)Nc3ccccc3-c3nncs3)nc(-c3ccccc3)n2)CC1=O` [Compound 112] was tested. Which EC1.5 did it give?
The EC1.5 was “A (EC1.5≦1 uM)”.

What about the Emax of the same molecule?
The Emax was ≥ 300%.

`CCN1CCN(c2cc(C(=O)Nc3ccccc3-c3nnc(N4CCOCC4)s3)nc(-c3ccccc3)n2)CC1=O` [Compound 104] was tested. Which EC1.5 did it give?
The EC1.5 was “A (EC1.5≦1 uM)”.

What about the Emax of the same molecule?
Its Emax is 150 to 300%.

Which results are given for `CN(C)CCNc1cc(C(=O)Nc2ccccc2-c2ncc(C(C)(C)C)o2)nc(-c2ccccc2)n1` [Compound 39]?
EC1.5: B (EC1.5>1 and ≦10 uM); Emax: 150 to 300%

Which results are given for `CCN(CCN(C)C)c1cc(C(=O)Nc2ccccc2-c2nnc(NC(=O)N3CCOCC3)s2)nc(-c2ccccc2)n1` [Compound 113]?
EC1.5: A (EC1.5≦1 uM); Emax: ≥ 300%

`O=C1CN(c2cc(C(=O)Nc3ccccc3-c3nnc(N4CCN5CCC[C@H]5C4)s3)nc(-c3ccccc3)n2)CCN1` [Compound 118] was tested. Which EC1.5 did it give?
The EC1.5 was “A (EC1.5≦1 uM)”.

What about the Emax of the same molecule?
Its Emax is 150 to 300%.

`O=C(Nc1ccccc1-c1ncc(-c2ccccc2)s1)c1cc(N2CCNCC2)nc(-c2ccccc2)n1` [Compound 18] was tested. Which EC1.5 did it give?
The EC1.5 was “A (EC1.5≦1 uM)”.

What about the Emax of the same molecule?
Its Emax is 150 to 300%.

What does the source list for `CCN(CCN(C)C)c1cc(C(=O)Nc2ccccc2-c2nnc(SC)s2)nc(-c2ccccc2)n1` [Compound 115]?
EC1.5: A (EC1.5≦1 uM); Emax: ≥ 300%

How did the EC1.5 turn out when `CN(C)CCNc1cc(C(=O)Nc2ccccc2-c2cccnc2)nc(-c2ccccc2)n1` [Compound 11] was run?
The EC1.5 was “B (EC1.5>1 and ≦10 uM)”.

And the Emax?
Its Emax is 150 to 300%.

Which EC1.5 does the source give for `O=C1CN(c2cc(C(=O)Nc3ccccc3-c3nncs3)nc(-c3ccccc3)n2)CCN1` [Compound 95] here?
Its EC1.5 is “A (EC1.5≦1 uM)”.

And the Emax?
Its Emax is ≥ 300%.

How did the EC1.5 turn out when `CCN(CCN(C)C)c1cc(C(=O)Nc2ccccc2-c2nnc(C(F)=C3CCOCC3)s2)nc(-c2ccccc2)n1` [Compound 114, 6-((2-(dimethylamino)ethyl)(ethyl)amino)-N-(2-(5-(fluoro(2H-pyran-4(3H,5H,6H)-ylidene)methyl)-1,3,4-thiadiazol-2-yl)phenyl)-2-phenylpyrimidine-4-carboxamide] was run?
Its EC1.5 is “A (EC1.5≦1 uM)”.

What about the Emax of the same molecule?
The Emax was ≥ 300%.

Which results are given for `CCN(CCOC)c1cc(C(=O)Nc2ccccc2-c2ncc(C(C)(C)C)s2)nc(-c2ccccc2)c1` [Compound 84]?
EC1.5: A (EC1.5≦1 uM); Emax: 150 to 300%

How did the EC1.5 turn out when `CN(C)CCNc1cc(C(=O)Nc2ccccc2-c2nnc(-c3cccnc3)s2)nc(-c2ccccc2)n1` [Compound 77] was run?
The EC1.5 was “A (EC1.5≦1 uM)”.

And the Emax?
Its Emax is ≥ 300%.

With `CN(C)CCNc1cc(C(=O)Nc2ccccc2C(=O)Nc2ccncc2)nc(-c2ccccc2)n1` [Compound 156, 6-(2-(dimethylamino)ethylamino)-2-phenyl-N-(2-(pyridin-4-ylcarbamoyl)phenyl)pyrimidine-4-carboxamide] as the molecule, how does the EC1.5 read?
The EC1.5 was “A (EC1.5≦1 uM)”.

What about the Emax of the same molecule?
The Emax was ≥ 300%.

For `CCN(CCOC)c1cc(C(=O)Nc2ccccc2-c2nnc(N3CCOCC3)s2)nc(-c2ccccc2)n1` [Compound 107], which EC1.5 is on record?
The EC1.5 was “A (EC1.5≦1 uM)”.

And the Emax?
Its Emax is 150 to 300%.

Which EC1.5 does the source give for `O=C1CN(c2cc(C(=O)Nc3ccccc3-c3nnc(C(=O)N4CCOCC4)s3)nc(-c3ccccc3)n2)CCN1` [Compound 89] here?
Its EC1.5 is “A (EC1.5≦1 uM)”.

And the Emax?
The Emax was ≥ 300%.

With `CN(C)CCNc1cc(C(=O)Nc2ccccc2-c2nnc(C3CCC3)s2)nc(-c2ccccc2)n1` [Compound 48] as the molecule, how does the EC1.5 read?
The EC1.5 was “B (EC1.5>1 and ≦10 uM)”.

And the Emax?
Its Emax is 150 to 300%.

What does the source list for `CN(C)CCNc1cc(C(=O)Nc2ccccc2-c2ccccn2)nc(-c2ccccc2)n1` [Compound 28]?
EC1.5: B (EC1.5>1 and ≦10 uM); Emax: ≥ 300%
